The target in data set [1] is T1, Gal4 DBD/AaEcR (DEF) with VP16-βRXR-E (Aedes aegypti, UniProt P49880).
T1 construct: The wildtype D, E, and F domains from mosquito Aedes aegypti EcR (“AaEcR-DEF”); expressed in transfected cells; host or cells: 3T3 cells, transient transfection (Superfect)
The experiment in a line: cell-based. It counts as cell-based. As to conditions: for LC50 (half-maximal ligand concentration for reporter induction): average, dose response 33 μM to 0.01 μM, three-parameter logistic model, read-out: AA_3T3 LC50; for AA_3T3 Rel Max FI: maximum fold induction at any concentration relative to that of GS-E ligand; for Fold Induction Average, AA_3T3 Assay (33 μM): single dose 33 μM, RLU ligand treated / RLU DMSO treated cells. The procedure:
3T3 cells were trypsinized and plated at 2.5×10^3 cells/well on a 96-well plate. After incubation for 24 h at 37° C. under 5% CO2, cells were transfected with the Gal4 DBD/AaEcR (DEF) gene expression cassette and the reporter plasmid, pFRLuc, containing a 5XGAL4 response element and the firefly luciferase gene in serum free media using Superfect (Qiagen). After transfection for 4 h at 37° C., the cells were treated with ligand in serum media. […] Single dose testing was performed at 33 μM.

In data set [2] the target is T2, GAL4 DBD (1-147)-CfEcR(DEF)/VP16AD-βRXREF-LmUSPEF (Choristoneura fumiferana, UniProt O77240).
T2 sequence (O77240 191-513): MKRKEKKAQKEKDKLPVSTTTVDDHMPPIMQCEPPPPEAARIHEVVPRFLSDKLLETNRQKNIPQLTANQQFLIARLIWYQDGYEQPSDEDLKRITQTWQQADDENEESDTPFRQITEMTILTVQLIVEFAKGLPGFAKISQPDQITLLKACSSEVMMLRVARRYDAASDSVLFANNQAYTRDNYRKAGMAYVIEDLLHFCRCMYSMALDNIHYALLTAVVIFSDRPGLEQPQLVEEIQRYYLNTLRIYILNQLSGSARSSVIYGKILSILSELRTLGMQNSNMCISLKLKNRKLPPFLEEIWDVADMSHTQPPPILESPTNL
T2 sequence (P28702 296-455 partner limits assumed): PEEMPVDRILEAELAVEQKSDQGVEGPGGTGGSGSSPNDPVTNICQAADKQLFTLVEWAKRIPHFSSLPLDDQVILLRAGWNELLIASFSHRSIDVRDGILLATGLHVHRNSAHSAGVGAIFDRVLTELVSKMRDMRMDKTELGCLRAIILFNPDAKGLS
The experiment in a line: 27-63 assay: luciferase reporter gene expression in stable CHO cell clone 27-63. As to conditions: for 27-63 Rel Max FI: maximum fold induction at any concentration relative to that of GS-E ligand; for CC50: read-out: 27-63 LC50, average, dose response, three-parameter logistic model. From the text:
GAL4 DBD (1-147)-CfEcR(DEF)/VP16AD-βRXREF-LmUSPEF: The wild-type D, E, and F domains from spruce budworm Choristoneura fumiferana EcR (“CfEcR-DEF”; SEQ ID NO: 1) were fused to a GAL4 DNA binding domain (“Gal4 DBD1-147”; nucleotides 31 to 471 of SEQ ID NO: 2) and placed under the control of a phosphoglycerate kinase promoter (“PGK”; SEQ ID NO: 3). Helices 1 through 8 of the EF domains from Homo sapiens RXRβ and helices 9 through 12 of the EF domains of Locusta migratoria Ultraspiracle Protein (“HsRXRβ-EF-LmUSP-EF”; SEQ ID NO: 4) were fused to the transactivation domain from VP16 (“VP16AD”; SEQ ID NO: 5) and placed under the control of an elongation factor-1α promoter (“EF-1α”; SEQ ID NO: 6). Five consensus GAL4 response element binding sites (“5XGAL4RE”; comprising 5 copies of a GAL4RE comprising SEQ ID NO: 7) were fused to a synthetic TATA minimal promoter (SEQ ID NO: 8) and placed upstream of the luciferase reporter gene (SEQ ID NO: 9).
CHO cells were transiently transfected with transcription cassettes for GAL4 DBD (1-147) CfEcR(DEF) and for VP16AD βRXREF-LmUSPEF controlled by ubiquitously active cellular promoters (PGK and EF-1α, respectively) on a single plasmid. Stably transfected cells were selected by Zeocin resistance. Individually isolated CHO cell clones were transiently transfected with a GAL4 RE-luciferase reporter (pFR Luc). 27-63 clone was selected using Hygromycin.
Cells were trypsinized and diluted to a concentration of 2.5×10^4 cells mL. 100 μL of cell suspension was placed in each well of a 96 well plate and incubated at 37° C. under 5% CO2 for 24 h. Ligand stock solutions were prepared in DMSO and diluted 300 fold for all treatments. Dose response testing consisted of 8 concentrations ranging from 33 μM to 0.01 μM.
Luciferase reporter gene expression was measured 48 h after cell treatment using Bright-Glo™ Luciferase Assay System from Promega (E2650). Luminescence was detected at room temperature using a Dynex MLX microtiter plate luminometer.
Fold inductions were calculated from single dose testing by dividing relative light units (RLU) in ligand treated cells by RLU in DMSO treated cells. BC50s were calculated from dose response data using a three-parameter logistic model.
(Reporter assays use an easily measured gene product as a stand-in for the process of interest.)

Data set [3] deals with T3, Bombyx mori EcR (VP16 fusion, switch construct CVBE) with 6XEcRE LacZ reporter (Bombyx mori, UniProt P49881).
T3 construct: expressed in transfected cells; host or cells: Human 293 kidney (HEK-293) cells, retrovirally infected, clone Z3
T3 sequence (P49881 86-606 limits assumed): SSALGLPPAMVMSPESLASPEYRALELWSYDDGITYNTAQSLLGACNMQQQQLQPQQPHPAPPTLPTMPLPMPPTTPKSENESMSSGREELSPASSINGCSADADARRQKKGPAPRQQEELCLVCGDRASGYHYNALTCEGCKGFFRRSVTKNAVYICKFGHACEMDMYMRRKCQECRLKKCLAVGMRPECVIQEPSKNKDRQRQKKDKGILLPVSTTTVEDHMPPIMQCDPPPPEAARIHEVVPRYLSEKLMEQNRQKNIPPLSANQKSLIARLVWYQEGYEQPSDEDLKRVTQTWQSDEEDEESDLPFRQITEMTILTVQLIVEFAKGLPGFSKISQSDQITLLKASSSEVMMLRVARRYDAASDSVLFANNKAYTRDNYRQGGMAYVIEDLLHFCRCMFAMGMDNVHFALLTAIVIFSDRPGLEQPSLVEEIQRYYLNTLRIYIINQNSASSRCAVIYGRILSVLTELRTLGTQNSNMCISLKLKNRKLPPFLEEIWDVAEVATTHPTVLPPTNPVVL
T3 sequence (P19793 1-462 partner): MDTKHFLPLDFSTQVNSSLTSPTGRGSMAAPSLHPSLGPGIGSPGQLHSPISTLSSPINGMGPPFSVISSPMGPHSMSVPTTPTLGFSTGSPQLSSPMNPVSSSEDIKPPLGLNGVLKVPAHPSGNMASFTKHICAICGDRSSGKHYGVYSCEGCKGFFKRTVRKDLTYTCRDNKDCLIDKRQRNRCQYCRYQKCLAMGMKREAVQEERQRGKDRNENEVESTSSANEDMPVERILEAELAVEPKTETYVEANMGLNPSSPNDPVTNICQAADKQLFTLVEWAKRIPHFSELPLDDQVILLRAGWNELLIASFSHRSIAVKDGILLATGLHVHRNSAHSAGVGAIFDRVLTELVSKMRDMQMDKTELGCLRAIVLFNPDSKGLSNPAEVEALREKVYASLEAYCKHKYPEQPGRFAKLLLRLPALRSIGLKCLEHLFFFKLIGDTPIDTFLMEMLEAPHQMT
Kind of data set: Z3 assay: β-galactosidase (LacZ) reporter gene fold induction in stably transformed human 293 kidney cells (clone Z3). It counts as cell-based. The settings on record: single dose 33 μM; ligand treated / DMSO treated cells. Put shortly:
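β-Galactosidase read 48 h after dosing by bioluminescent assay; ligand added at 33 μM with DMSO held at 0.03%. The cells are stable 293 clone Z3, expressing a CMV-driven VP16 fusion of Bombyx mori EcR residues 26-546 plus six EcRE copies upstream of lacZ.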

Data set [4] deals with T4, GAL4 DBD-CfEcR(DEF)/VP16AD-MmRXRE (Choristoneura fumiferana, UniProt O77240).
T4 sequence (O77240 1-513): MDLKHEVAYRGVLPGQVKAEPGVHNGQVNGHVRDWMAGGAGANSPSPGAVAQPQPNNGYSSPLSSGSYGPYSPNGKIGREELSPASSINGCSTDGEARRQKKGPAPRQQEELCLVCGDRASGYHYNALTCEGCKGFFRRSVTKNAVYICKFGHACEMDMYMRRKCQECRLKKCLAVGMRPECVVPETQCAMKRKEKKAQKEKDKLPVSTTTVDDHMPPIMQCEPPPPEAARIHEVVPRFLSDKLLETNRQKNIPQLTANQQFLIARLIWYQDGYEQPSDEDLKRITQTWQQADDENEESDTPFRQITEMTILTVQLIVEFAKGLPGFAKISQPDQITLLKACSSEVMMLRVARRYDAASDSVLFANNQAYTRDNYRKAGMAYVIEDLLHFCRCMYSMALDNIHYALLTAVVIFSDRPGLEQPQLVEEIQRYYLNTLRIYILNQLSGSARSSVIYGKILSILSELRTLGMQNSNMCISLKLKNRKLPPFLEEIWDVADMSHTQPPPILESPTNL
Kind of data set: cell-based. The procedure, abridged: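 Stable CHO clone 13B3 expressing GAL4 DBD-CfEcR(DEF) and VP16AD-mouse RXR(DE) with GAL4 RE-luciferase reporter. Ligands tested at 8 concentrations, 33–0.01 μM; luciferase read 48 h after treatment. Fold induction versus DMSO; BC50 from three-parameter logistic fit.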

Molecules are shown by their SMILES.

The EC50 is the concentration needed to bring the measured effect to its halfway point. A high value points to a need for much substance.

T1 sequence (P28704 286-520 A311G/G315S/G445S/I449V): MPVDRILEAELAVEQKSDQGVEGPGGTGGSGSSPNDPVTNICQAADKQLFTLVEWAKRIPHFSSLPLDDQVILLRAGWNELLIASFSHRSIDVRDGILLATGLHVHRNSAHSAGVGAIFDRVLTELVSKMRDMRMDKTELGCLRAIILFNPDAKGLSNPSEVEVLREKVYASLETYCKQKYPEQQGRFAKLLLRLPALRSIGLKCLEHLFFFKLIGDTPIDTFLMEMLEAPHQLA
T1 sequence (P49880 405-776): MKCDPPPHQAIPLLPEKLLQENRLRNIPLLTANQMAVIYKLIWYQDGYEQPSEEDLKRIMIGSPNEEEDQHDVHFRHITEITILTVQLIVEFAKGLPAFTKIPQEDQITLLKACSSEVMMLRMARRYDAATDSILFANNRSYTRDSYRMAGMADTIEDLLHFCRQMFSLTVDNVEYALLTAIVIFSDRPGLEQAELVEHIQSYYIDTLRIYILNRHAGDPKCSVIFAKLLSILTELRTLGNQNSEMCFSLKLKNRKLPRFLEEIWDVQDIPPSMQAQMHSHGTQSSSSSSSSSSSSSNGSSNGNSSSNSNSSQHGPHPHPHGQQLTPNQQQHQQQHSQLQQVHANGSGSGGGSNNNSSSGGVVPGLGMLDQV

As for `Cc1cc(C)cc(C(=O)C2(NC(=O)c3ccccc3C)CCCC2)c1` [Example 89], in data set [1], the LC50 (half-maximal ligand concentration for reporter induction) is above 33 µM; the “AA_3T3 Rel Max FI” value worked out at 0.00; the “Fold Induction Average, AA_3T3 Assay (33 μM)” value turned out to be 78. Also, in data set [2], the “27-63 Rel Max FI” value is on record as 0.07 and the CC50 is above 33 µM.
As to `COc1cccc(C(=O)NC2(C(=O)c3cc(C)cc(C)c3)CCN(C(=O)OC(C)C)CC2)c1C` [Example 158], in data set [3], the “Fold Induction Average, Z3 Assay (33 μM)” value was determined as 4. Besides, the “Fold Induction Average, AA_3T3 Assay (33 μM)” value in data set [1] stood at 1.
Regarding `CCC(=O)C(C)(C)NC(=O)c1ccccc1C` [Example 124], the “Fold Induction Average, AA_3T3 Assay (33 μM)” value in data set [1] amounted to 2.
Compound `COc1cccc(C(=O)NC(C)(C(=O)c2ccc(F)c(C)c2)C(C)C)c1C` (centres unmarked) [Example 56] showed an EC50 in data set [4] above 33 µM. Further, in data set [4] (maximum fold induction at any concentration relative to that of GS-E ligand), the “13B3 Rel Max FI” value came to 0.00. Moreover, in data set [2], the “27-63 Rel Max FI” value is reported as 0.06 and the CC50 is above 33 µM.
As to `CCc1ccc(C(=O)NC2(C(=O)c3cc(C)cc(C)c3)CCCC2)cc1` [Example 138], in data set [1], the LC50 (half-maximal ligand concentration for reporter induction) is around 4.7 µM; the “AA_3T3 Rel Max FI” value came out at 0.22; the “Fold Induction Average, AA_3T3 Assay (33 μM)” value turned out to be 2134. For the same compound, in data set [2], the “27-63 Rel Max FI” value amounted to 0.75 and the CC50 was found to be 3.59 µM.
Regarding `CCC(=O)C1(NC(=O)c2ccccc2C)CCCC1` [Example 132], in data set [1], the “Fold Induction Average, AA_3T3 Assay (33 μM)” value came to 1.
The same measure, in the same setting: under `CCC(=O)C(C)(C)NC(=O)c1ccc(CC)cc1` [Example 125] stands 1.
Consider `COc1cccc(C(=O)NC2(C(=O)c3cc(C)cc(C)c3)CCCC2)c1` [Example 137], for which, in data set [1], the LC50 (half-maximal ligand concentration for reporter induction) was above 33 µM; the “AA_3T3 Rel Max FI” value was found to be 0.01; the “Fold Induction Average, AA_3T3 Assay (33 μM)” value is reported as 115. In data set [2], the “27-63 Rel Max FI” value came to 0.21 and the CC50 was above 33 µM.
On to `COc1cccc(C(=O)NC(C)(C(=O)c2cc(C)cc(C)c2)c2ccc(F)cc2)c1C` (centres unmarked) [Example 73], for which the “Fold Induction Average, Z3 Assay (33 μM)” value in data set [3] was 4. For the same compound, the “Fold Induction Average, AA_3T3 Assay (33 μM)” value in data set [1] was 1.

These data come from patent US8129355B2, “Ketone ligands for modulating the expression of exogenous genes via an ecdysone receptor complex” (priority 2002, dated 2012).
